Measurements reported in patent publication US10681908B2, “Molecules having pesticidal utility, and intermediates, compositions, and processes, related thereto” (Dow AgroSciences LLC, priority 2016, dated 2020).

Key:
Format in all cases: in vivo
[1] = tested on: Beet Armyworm (Spodoptera exigua, LAPHEG); test: Bioassay on Beet Armyworm (BAW), 128-well diet tray assay; details: 168 h, 50 μg/cm^2 on artificial diet, second instar larvae, five to seven days, 25° C., read-out: BAW % Control (or Mortality) rating
Procedure, shortened: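 Artificial diet was surface-treated with 50 μg/cm^2 of compound in 90:10 acetone-water and dried; one to five second-instar larvae were placed per well, eight wells per treatment. Held at 25 °C, 14:10 light-dark, for five to seven days, then percent mortality per well was averaged.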

[2] = tested on: Cabbage Looper (Trichoplusia ni, TRIPNI); test: Bioassay on Cabbage Looper (CL), 128-well diet tray assay; details: 168 h, 50 μg/cm^2 on artificial diet, second instar larvae, five to seven days, 25° C., read-out: CL % Control (or Mortality) rating
Procedure, shortened: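 Diet-tray assay: 1–5 second-instar larvae per well on artificial diet surface-treated with 50 μg/cm^2 compound (90:10 acetone-water, dried), eight wells per compound. Held at 25° C., 14:10 light-dark for five to seven days; percent mortality per well averaged across the eight wells.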

[3] = tested on: Yellow Fever Mosquito (Aedes aegypti, AEDSAE); details: about 1 day-old larvae, 3 days, room temperature, scored on mortality
Method: Example C: Bioassays on Yellow Fever Mosqurro (Aedes aegypti, AEDSAE) (“YFM”)
Certain molecules disclosed in this document were tested against YFM using procedures described in the following paragraph. In the reporting of the results, the “GPA & YFM Rating Table” was used (See Table Section).
Master plates containing 400 μg of a molecule dissolved in 100 μL of dimethyl sulfoxide (DMSO) (equivalent to a 4000 ppm solution) are used. A master plate of assembled molecules contains 15 μL per well. To this plate, 135 μL of a 90:10 water:acetone mixture is added to each well. A robot (Biomek® NXP Laboratory Automation Workstation) is programmed to dispense 15 μL aspirations from the master plate into an empty 96-well shallow plate (“daughter” plate). There are 6 reps (“daughter” plates) created per master. The created daughter plates are then immediately infested with YFM larvae.
The day before plates are to be treated, mosquito eggs are placed in Millipore water containing liver powder to begin hatching (4 g. into 400 mL). After the daughter plates are created using the robot, they are infested with 220 μL of the liver powder/larval mosquito mixture (about 1 day-old larvae). After plates are infested with mosquito larvae, a non-evaporative lid is used to cover the plate to reduce drying. Plates are held at room temperature for 3 days prior to grading. After 3 days, each well is observed and scored based on mortality. The results are indicated in the table entitled “Table ABC: Biological Results” (See Table Section).

## C[C@H](CSCC(F)(F)F)NC(=O)c1ccc(/C(F)=C/C(c2cc(Cl)c(F)c(Cl)c2)C(F)(F)F)cc1C(F)(F)F (stereo partly drawn) [F36, 4-((Z)-3-(3,5-Dichloro-4-fluorophenyl)-1,4,4,4-tetrafluorobut-1-en-1-yl)-N—((R)-1-((2,2,2-trifluoroethyl)thio)propan-2-yl)-2-(trifluoromethyl)benzamide]
[1]
  mortality at 50 µg/cm2: 50 to 100%
[2]
  mortality at 50 µg/cm2: 50 to 100%
[3]
  YFM % Control (or Mortality) rating: A (80-100)

## C[C@H](CSCC(F)(F)F)NC(=O)c1ccc(/C(F)=C/C(c2cc(Br)cc(Br)c2)C(F)(F)F)cc1C(F)(F)F (stereo partly drawn) [F30, 4-((Z)-3-(3,5-Dibromophenyl)-1,4,4,4-tetrafluorobut-1-en-1-yl)-N—((R)-1-((2,2,2-trifluoroethyl)thio)propan-2-yl)-2-(trifluoromethyl)benzamide]
[1]
  mortality at 50 µg/cm2: 50 to 100%
[2]
  mortality at 50 µg/cm2: 50 to 100%
[3]
  YFM % Control (or Mortality) rating: A (80-100)

## C[C@H](CSCC(F)(F)F)NC(=O)c1ccc(/C(F)=C/C(c2ccc(F)c(C(F)(F)F)c2)C(F)(F)F)cc1C(F)(F)F (stereo partly drawn) [F102, 4-((Z)-1,4,4,4-Tetrafluoro-3-(4-fluoro-3-(trifluoromethyl)phenyl)but-1-en-1-yl)-N—((R)-1-((2,2,2-trifluoroethyl)thio)propan-2-yl)-2-(trifluoromethyl)benzamide]
[1]
  mortality at 50 µg/cm2: 50 to 100%
[2]
  mortality at 50 µg/cm2: 50 to 100%
[3]
  YFM % Control (or Mortality) rating: A (80-100)

## O=C(NCCSC(F)(F)F)c1ccc(/C(F)=C/C(c2cc(Cl)c(Cl)c(Cl)c2)C(F)(F)F)cc1C(F)(F)F (stereo not drawn) [F92, (Z)-4-(1,4,4,4-tetrafluoro-3-(3,4,5-trichlorophenyl)but-1-en-1-yl)-2-(trifluoromethyl)-N-(2-((trifluoromethyl)thio)ethyl)benzamide]
[1]
  mortality at 50 µg/cm2: 50 to 100%
[2]
  mortality at 50 µg/cm2: 50 to 100%
[3]
  YFM % Control (or Mortality) rating: B (More than 0-Less than 80)

## C[C@H](CS(=O)(=O)CC(F)(F)F)NC(=O)c1ccc(/C(F)=C/C(c2ccc(C(F)(F)F)c(Cl)c2)C(F)(F)F)cc1C(F)(F)F (stereo partly drawn) [F91]
[1]
  mortality at 50 µg/cm2: 50 to 100%
[2]
  mortality at 50 µg/cm2: 50 to 100%
[3]
  YFM % Control (or Mortality) rating: D (No activity noticed in this bioassay)

## C[C@H](CSCC(F)(F)F)NC(=O)c1ccc(/C(F)=C/C(c2cc(Cl)cc(Cl)c2)C(F)(F)F)cc1C(F)(F)F (stereo partly drawn) [F19, 4-((Z)-3-(3,5-Dichlorophenyl)-1,4,4,4-tetrafluorobut-1-en-1-yl)-N—((R)-1-((2,2,2-trifluoroethyl)thio)propan-2-yl)-2-(trifluoromethyl)benzamide]
[1]
  mortality at 50 µg/cm2: 50 to 100%
[2]
  mortality at 50 µg/cm2: 50 to 100%
[3]
  YFM % Control (or Mortality) rating: A (80-100)

## C[C@H](CS(=O)(=O)CC(F)(F)F)NC(=O)c1ccc(/C(F)=C/C(c2cc(Cl)cc(Cl)c2)C(F)(F)F)cc1C(F)(F)F (stereo partly drawn) [F17, 4-((Z)-3-(3,5-dichlorophenyl)-1,4,4,4-tetrafluorobut-1-en-1-yl)-N—((R)-1-((2,2,2-trifluoroethyl)sulfonyl)propan-2-yl)-2-(trifluoromethyl)benzamide]
[1]
  mortality at 50 µg/cm2: 50 to 100%
[2]
  mortality at 50 µg/cm2: 50 to 100%
[3]
  YFM % Control (or Mortality) rating: A (80-100)

## C=Cc1c(Cl)cc(C(/C=C(\F)c2ccc(C(=O)N[C@H](C)CSCC(F)(F)F)c(C(F)(F)F)c2)C(F)(F)F)cc1Cl (stereo partly drawn) [F32, 4-((Z)-3-(3,5-Dichloro-4-vinylphenyl)-1,4,4,4-tetrafluorobut-1-en-1-yl)-N—((R)-1-((2,2,2-trifluoroethyl)thio)propan-2-yl)-2-(trifluoromethyl)benzamide]
[1]
  mortality at 50 µg/cm2: 50 to 100%
[2]
  mortality at 50 µg/cm2: 50 to 100%
[3]
  YFM % Control (or Mortality) rating: A (80-100)

## CCC(F)(F)c1cc(Cl)cc(C(/C=C(\F)c2ccc(C(=O)N[C@H](C)CS(=O)(=O)CC(F)(F)F)c(C(F)(F)F)c2)C(F)(F)F)c1 (stereo partly drawn) [F131, 4-((Z)-3-(3-Chloro-5-(1,1-difluoropropyl)phenyl)-1,4,4,4-tetrafluorobut-1-en-1-yl)-N—((R)-1-((2,2,2-trifluoroethyl)sulfonyl)propan-2-yl)-2-(trifluoromethyl)benzamide]
[1]
  mortality at 50 µg/cm2: 50 to 100%
[2]
  mortality at 50 µg/cm2: 50 to 100%
[3]
  YFM % Control (or Mortality) rating: A (80-100)

## COc1ccc(C(/C=C(\F)c2ccc(C(=O)N[C@H](C)CS(=O)(=O)CC(F)(F)F)c(C(F)(F)F)c2)C(F)(F)F)cc1Cl (stereo partly drawn) [F142, 4-((Z)-3-(3-Chloro-4-methoxyphenyl)-1,4,4,4-tetrafluorobut-1-en-1-yl)-N—((R)-1-((2,2,2-trifluoroethyl)sulfonyl)propan-2-yl)-2-(trifluoromethyl)benzamide]
[1]
  mortality at 50 µg/cm2: 50 to 100%
[2]
  mortality at 50 µg/cm2: 50 to 100%
[3]
  YFM % Control (or Mortality) rating: B (More than 0-Less than 80)

## C=Cc1c(Cl)cc(C(/C=C(\F)c2ccc(C(=O)N[C@H](C)CS(=O)(=O)CC)c(C(F)(F)F)c2)C(F)(F)F)cc1Cl (stereo partly drawn) [F119, 4-((Z)-3-(3,5-Dichloro-4-vinylphenyl)-1,4,4,4-tetrafluorobut-1-en-1-yl)-N—((R)-1-(ethylsulfonyl)propan-2-yl)-2-(trifluoromethyl)benzamide]
[1]
  mortality at 50 µg/cm2: 50 to 100%
[2]
  mortality at 50 µg/cm2: 50 to 100%
[3]
  YFM % Control (or Mortality) rating: A (80-100)

## C[C@H](CS(=O)(=O)CC(F)(F)F)NC(=O)c1ccc(/C(F)=C/C(c2cc(Cl)cc(Br)c2)C(F)(F)F)cc1C(F)(F)F (stereo partly drawn) [F65]
[1]
  mortality at 50 µg/cm2: 50 to 100%
[2]
  mortality at 50 µg/cm2: 50 to 100%
[3]
  YFM % Control (or Mortality) rating: B (More than 0-Less than 80)

## O=C(NCCSCCF)c1ccc(/C(F)=C/C(c2cc(Cl)c(Cl)c(Cl)c2)C(F)(F)F)cc1C(F)(F)F (stereo not drawn) [F125, (Z)—N-(2-((2-Fluoroethyl)thio)ethyl)-4-(1,4,4,4-tetrafluoro-3-(3,4,5-trichlorophenyl)but-1-en-1-yl)-2-(trifluoromethyl)benzamide]
[1]
  mortality at 50 µg/cm2: 50 to 100%
[2]
  mortality at 50 µg/cm2: 50 to 100%
[3]
  YFM % Control (or Mortality) rating: D (No activity noticed in this bioassay)

## C[C@H](CS(=O)(=O)CC(F)(F)F)NC(=O)c1ccc(/C(F)=C/C(c2ccc(C(F)(F)F)c(Br)c2)C(F)(F)F)cc1C(F)(F)F (stereo partly drawn) [F95, 4-((Z)-3-(3-Bromo-4-(trifluoromethyl)phenyl)-1,4,4,4-tetrafluorobut-1-en-1-yl)-N—((R)-1-((2,2,2-trifluoroethyl)sulfonyl)propan-2-yl)-2-(trifluoromethyl)benzamide]
[1]
  mortality at 50 µg/cm2: 50 to 100%
[2]
  mortality at 50 µg/cm2: 50 to 100%
[3]
  YFM % Control (or Mortality) rating: A (80-100)

## C[C@H](C[S+]([O-])CC(F)(F)F)NC(=O)c1ccc(/C(F)=C/C(c2cc(Cl)c(Br)c(Cl)c2)C(F)(F)F)cc1C(F)(F)F (stereo partly drawn) [F26, 4-((Z)-3-(4-Bromo-3,5-dichlorophenyl)-1,4,4,4-tetrafluorobut-1-en-1-yl)-N-((2R)-1-((2,2,2-trifluoroethyl)sulfinyl)propan-2-yl)-2-(trifluoromethyl)benzamide]
[1]
  mortality at 50 µg/cm2: 50 to 100%
[2]
  mortality at 50 µg/cm2: 50 to 100%
[3]
  YFM % Control (or Mortality) rating: A (80-100)

## C=Cc1c(Cl)cc(C(/C=C(\F)c2ccc(C(=O)N[C@H](C)C[S+]([O-])CC(F)(F)F)c(C(F)(F)F)c2)C(F)(F)F)cc1Cl (stereo partly drawn) [F34, 4-((Z)-3-(3,5-Dichloro-4-vinylphenyl)-1,4,4,4-tetrafluorobut-1-en-1-yl)-N-((2R)-1-((2,2,2-trifluoroethyl)sulfinyl)propan-2-yl)-2-(trifluoromethyl)benzamide]
[1]
  mortality at 50 µg/cm2: 50 to 100%
[2]
  mortality at 50 µg/cm2: 50 to 100%
[3]
  YFM % Control (or Mortality) rating: A (80-100)

## C[C@H](CS(=O)(=O)CC(F)(F)F)NC(=O)c1ccc(/C(F)=C/C(c2cc(Cl)c(F)c(Cl)c2)C(F)(F)F)cc1C(F)(F)F (stereo partly drawn) [F29, 4-((Z)-3-(3,5-Dichloro-4-fluorophenyl)-1,4,4,4-tetrafluorobut-1-en-1-yl)-N—((R)-1-((2,2,2-trifluoroethyl)sulfonyl)propan-2-yl)-2-(trifluoromethyl)benzamide]
[1]
  mortality at 50 µg/cm2: 50 to 100%
[2]
  mortality at 50 µg/cm2: 50 to 100%
[3]
  YFM % Control (or Mortality) rating: A (80-100)

## Cc1cc(C(/C=C(\F)c2ccc(C(=O)N[C@H](C)CSCC(F)(F)F)c(C(F)(F)F)c2)C(F)(F)F)cc(C)c1Cl (stereo partly drawn) [F52, 4-((Z)-3-(4-Chloro-3,5-dimethylphenyl)-1,4,4,4-tetrafluorobut-1-en-1-yl)-N—((R)-1-((2,2,2-trifluoroethyl)thio)propan-2-yl)-2-(trifluoromethyl)benzamide]
[1]
  mortality at 50 µg/cm2: 50 to 100%
[2]
  mortality at 50 µg/cm2: 50 to 100%
[3]
  YFM % Control (or Mortality) rating: D (No activity noticed in this bioassay)
